Experiments:
[1] = rat, in vivo, po
Experimental: (§5) Male Sprague-Dawley rats with an average weight of approximately 250 g were purchased from Orient Bio Inc. (Seoul, South Korea) and acclimatized to the laboratory conditions (12:12 h light-dark cycle, temperature of 24°C, and humidity of 55%) for 1 week. Animals were provided the American Institute of Nutrition-93 (AIN-93) diet and water ad libitum during acclimation. On the dosing day, rats were fasted for 6 h and then administered AITC (25 mg/kg of body weight) as a suspension (1 mL) in polyethylene glycol using an oral zonde needle. After a single-dose oral administration of AITC, rats were sacrificed under anesthesia (80 mg/kg ketamine + 8 mg/kg xylazine) at different time points after dosing. Blood samples were collected from the abdominal aorta in heparinized syringes. Samples were immediately centrifuged at 3,000 × g for 10 min and the resulting plasma samples were kept frozen at -80°C until analysis. The liver, heart, spleen, kidney, and lung were rapidly collected from each animal at different time points, individually wrapped in aluminum foil, snap-frozen in liquid nitrogen, and stored frozen at -80°C until use.
(§6) Dissected tissue was thawed, rinsed with ice-cold saline, blotted dry, and weighed. Each tissue sample (100 mg) was homogenized in 100 μL phosphate-buffered saline (PBS) using homogenizer (MP Fastprep instrument, MP Biomedical, Solon, OH, USA). The homogenates were transferred into clean tubes and mixed with 700 μL of methanol by vortexing for 5 min. Homogenates were centrifuged at 15,700 × g for 15 min at 4°C, and the supernatants were collected and evaporated to dryness at room temperature under a stream of nitrogen gas. The residue was diluted with 100 μL 70% methanol.
(§7) HPLC analysis was performed using a Jasco HPLC system equipped with a Jasco UV-2089 plus quaternary gradient pump, a Jasco MD-2010 plus multiple-wave-length detector, and Borwin chromatography software, version 1.5 (Jasco Inc., Easton, MD, USA). Separation was achieved using an XTerra RP18 column (4.6 × 250mm, 5 μM, Waters, Milford, MA, USA). […]

Hepa 1–6 cells = test: Oleic acid-induced lipid accumulation in hepatocytes, Oil Red O; assay type: cell-based, mouse; conditions: hepatocytes (Hepa 1–6), 100 μM oleic acid, 24h
Experimental: HepG2 (human hepatoma cell line) and Hepa 1–6 (mouse hepatoma cell line) cells were obtained from ATCC (Manassas, VA, USA) and grown in high glucose DMEM supplemented with 10% FBS, 100 U/mL penicillin, and 100 μg/mL streptomycin. For examination of lipid accumulation in hepatocytes, the cells were treated with AITC metabolites in presence of 100 μM oleic acid for 24h.
(§1) Oil Red O staining was performed on day 8. Prior to quantification, the cells were fixed in 10% neutral formalin for 1 h at room temperature, washed with PBS, and stained for 1 h with 0.5% Oil Red O in 60% isopropanol. After staining, the cells were washed with distilled water and observed under a fluorescence microscope. […] The optical density was measured at a wavelength of 490 nm using microplate reader (Tecan Infinite 200 PRO, Männedorf, Switzerland).
Fig 6 Inhibitory effects of GSH-AITC and NAC-AITC on oleic acid-induced lipid accumulation. […] The intracellular triglyceride levels were indexed by quantifying the Oil Red O extracted from the cells by spectroscopy performed at an […] of 490 nm (B). The SCD1, FAS, and AMPK levels in cell lysates were detected by western blot analysis. To compare and quantify levels of proteins, the density of each band was measured using ImageJ software with β–actin as an internal reference (C). […]

[2] = Tissue distribution of AITC metabolites after oral AITC (HPLC); conditions: rat liver, kidney, spleen, heart, lung; 0.5-8 h after oral AITC
Experimental: as §5, §6, §7

3T3-L1 preadipocytes = test: MDI-induced adipocyte differentiation of 3T3-L1 preadipocytes, Oil Red O staining; assay type: cell-based; conditions: treated days 0 to 2, stained after 8 days
Experimental: (§2) 3T3-L1 pre-adipocyte cells were purchased from the ATCC (Manassas, VA, USA). Cells were maintained in DMEM supplemented with 10% calf serum (CS), 100 U/mL penicillin and 100 μg/mL streptomycin at 37°C in a 5% CO2 incubator. The cells were seeded onto a 6-well plate at a density of 4 × 10^5 cells per well, and cell differentiation was induced. In brief, beginning at 2 days post-confluence (day 0), cells were incubated for 2 days in DMEM containing 0.5 mM 3-isobutyl-1-methylxanthine (IBMX), 1 μM dexamethasone, 1 μg/mL of insulin, and 10% fetal bovine serum (FBS). After induction, the medium was replaced with DMEM containing 10% FBS and 1 μg/mL of insulin, and the cells were incubated for 2 more days, after which the cells were maintained in DMEM containing 10% FBS until they reached maturity. From days 0 to 2, the cells were exposed to the AITC metabolites.
as §1

PPAR-γ, C/EBPα, and FAS = test: Western blotting of adipogenesis proteins in 3T3-L1 cells; assay type: cell-based
Experimental: as §2
(§3) 3T3-L1 adipocytes were scraped into a lysis buffer containing 40 mM HEPES (pH 7.4), 120 mM NaCl, 1 mM EDTA, 50 mM NaF, 1.5 mM Na3VO4, 10 mM β–glycerophosphate, and 1% Triton X-100, supplemented with EDTA-free phosphatase and a protease inhibitor cocktail (#78441; Thermo Scientific, Waltham, MA, USA). Next, the cells were lysed by sonication twice for 15 sec on ice using a sonicator (Misonix, Farmingdale, NY, USA). […]

[3] = design: method as in PMID 3961819; conditions: cellular medium; cited from earlier work
[4] = Urine concentration and pharmacokinetics of AITC metabolites after oral AITC (HPLC); assay type: in vivo; conditions: rat urine; for Detection in urine samples: HPLC
Experimental: (§4) Non-compartmental (mode-independent) nutrikinetic parameters were derived using PK Solutions software version 2.0 (Summit Research Services, Montrose, CO, USA). The maximum plasma concentration (Cmax), time to maximum plasma concentration (Tmax), and the elimination half-life (t1/2) were estimated from the plasma concentration-time curve. The area under the curve (AUC) for the plasma concentration over time was calculated using the trapezoidal rule.
In addition to our evaluations of plasma levels, we also determined the concentration of AITC metabolites in urine using HPLC. […] NAC-AITC was mostly excreted within 8 h (Fig 3C).

[5] = Plasma pharmacokinetics of AITC metabolites after oral administration of AITC (HPLC); assay type: in vivo; conditions: male, Sprague-Dawley, rat plasma, metabolite after oral AITC 25 mg/kg, n = 5; for Cmax: read-out: Cmax (maximum plasma concentration); for half-life: read-out: T1/2 (elimination half-life) (converted); for AUC(0-t): unit printed in text b47 only, read-out: AUC (0-8h)
Experimental: Methanol (700 μL) was added to 300 μL of serum and the mixture was mixed by vortexing for 5 min. […] The internal standards (synthesized metabolites) were added to the plasma samples for validation.
as §4
A validated analytical method was employed to study the pharmacokinetic profiles of AITC metabolites after oral administration of 25 mg/kg AITC dose to rats. The mean plasma concentration-time curves of the AITC metabolites and the corresponding pharmacokinetic parameters are shown in Fig 2B and 2C . The pharmacokinetic analysis was performed with PK solution 2.0 software, using a non-compartmental model for data analysis. After oral administration of AITC, GSH-AITC and NAC-AITC were detected in the plasma. The Tmax values for GSH-AITC and NAC-AITC were similar at 0.5h. […] The areas under the curve of the concentration-time profile (AUC0-8h) of GSH-AITC and NAC-AITC were 1.3 and 12.33 μg·h/mL, respectively.

mTORC1 = mTORC1 activity (S6K1 and 4EBP1 phosphorylation) during 3T3-L1 adipocyte differentiation, western blot; assay type: cell-based
Experimental: as §2, §3

[6] = male, Sprague-Dawley, 25 mg/kg, n = 5

SMILES | Detection of parent molecule in plasma and tissues [1] | Oleic acid-induced lipid accumulation (Hepa 1–6 cells) | Tissue deposition (by tissue weight) [2] | Differentiation of 3T3-L1 preadipocytes (Oil Red O) (3T3-L1 preadipocytes) | Levels of PPAR-γ, C/EBPα, and FAS (PPAR-γ, C/EBPα, and FAS) | Fraction converted to free AITC [3] | Detection in urine samples [4] | Tmax [5] | Cmax [5] | half-life [5] | AUC(0-t) [5] | S6K1 phosphorylation on Thr389 (mTORC1) | Cmax [4, 6] | Tmax [4, 6] | AUC(0-t) ([4]; male, Sprague-Dawley, 25 mg/kg, n = 5, read-out: AUC (0-8h) in urine) | half-life ([4]; male, Sprague-Dawley, 25 mg/kg, n = 5, read-out: T1/2 in urine (converted)) | Time within which mostly excreted in urine [4]
C=CCN=C=S [AITC, Allyl-isothiocyanate] | not detected | – | – | – | – | – | – | – | – | – | – | – | – | – | – | – | –
C=CCNC(=S)SC[C@H](NC(=O)CC[C@H](N)C(=O)O)C(=O)NCC(=O)O [GSH-AITC, S-(N-allylthiocarbamoyl)-L-glutathione] | – | suppressed | observed in the liver, followed by the kidney, spleen, heart, and lung | inhibited differentiation of preadipocytes | reduced | 9–15% | not detected | 30 min | 1470 ng/mL | 55.2 min | 1300 ng·h/mL | reduced | – | – | – | – | –
C=CCNC(=S)SC[C@H](NC(C)=O)C(=O)O [NAC-AITC, N-acetyl-S-(N-allylthiocarbamoyl)- l-cysteine] | – | suppressed | observed in the kidney | inhibited differentiation of preadipocytes | reduced | – | successfully quantified | 30 min | 14000 ng/mL | 159 min | 12300 ng·h/mL | reduced | 2260 ng/mL | 2.66 h | 8110 ng·h/mL | 86.4 min | ≤ 8 h

Reference: publication PMC4552636, “Pharmacokinetics, Tissue Distribution, and Anti-Lipogenic/Adipogenic Effects of Allyl-Isothiocyanate Metabolites” (PLoS ONE, 2015)
